Test results taken from ChEMBL document CHEMBL3808311, “Inhibitors of Renal Outer Medullary Potassium Channel” (ACS Med Chem Lett, 2016).

The compounds below were run against T1, ATP-sensitive inward rectifier potassium channel 1 (Homo sapiens, UniProt P48048) (assay: Inhibition of human Kir1.1 expressed in HEK293 cells after 30 mins by thallium flux assay).
T1 sequence (P48048 whole entry): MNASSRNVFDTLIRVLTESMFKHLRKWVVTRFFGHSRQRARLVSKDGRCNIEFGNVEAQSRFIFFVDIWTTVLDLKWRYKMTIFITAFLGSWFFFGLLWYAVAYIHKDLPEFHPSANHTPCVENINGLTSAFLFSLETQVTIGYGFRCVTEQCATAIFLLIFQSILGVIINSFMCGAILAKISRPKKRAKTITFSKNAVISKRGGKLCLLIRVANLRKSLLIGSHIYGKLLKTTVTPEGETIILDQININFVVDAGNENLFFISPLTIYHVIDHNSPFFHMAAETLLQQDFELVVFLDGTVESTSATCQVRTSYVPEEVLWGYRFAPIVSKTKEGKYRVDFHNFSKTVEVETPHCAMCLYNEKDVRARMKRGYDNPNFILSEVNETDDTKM
Format: cell-based

| SMILES | IC50 |
| --- | --- |
| CC1=C(N2CCC3(CCN(C[C@H](O)c4ccc5c(c4)-c4nnnn4C5)CC3)C2=O)COC1=O | 11 nM |
| CC1=C(N2CCC3(CCN(C[C@@H](O)c4cc5c(cc4Cl)Cn4nnnc4-5)CC3)C2=O)COC1=O | 9 nM |
| C[C@@H]1CC2(CCN(C[C@@H](O)c3ccc4c(c3)-c3nnnn3C4)CC2)C(=O)N1C1=CC(=O)OC1 | 7 nM |
| CC1=C(N2CCC3(CCN(C[C@H](O)c4cc5c(cc4C)Cn4nnnc4-5)CC3)C2=O)COC1=O | 17 nM |
| C[C@H]1CC2(CCN(C[C@@H](O)c3ccc4c(c3)-c3nnnn3C4)CC2)C(=O)N1C1=CC(=O)OC1 | 14 nM |
| C[C@@H]1CC2(CCN(C[C@H](O)c3ccc4c(c3)-c3nnnn3C4)CC2)C(=O)N1C1=CC(=O)OC1 | 32 nM |
| CC1=C(N2CCC3(CCN(C[C@H](O)c4ccc5c(c4)-c4nnnn4C5)C[C@H]3F)C2=O)COC1=O (stereo partly specified) | 43 nM |
| CC1=C(N2CCC3(CCN(C[C@H](O)c4cc5c(cc4Cl)Cn4nnnc4-5)CC3)C2=O)COC1=O | 31 nM |
| CC1=C(N2CCC3(CCN(C[C@H](O)c4ccc5c(c4)-c4nnnn4C5)C[C@@H]3F)C2=O)COC1=O (stereo partly specified) | 35 nM |
| C[C@H]1CC2(CCN(C[C@H](O)c3ccc4c(c3)-c3nnnn3C4)CC2)C(=O)N1C1=CC(=O)OC1 | 20 nM |
| CC1=C(N2CCC3(CCN(C[C@@H](O)c4ccc5c(c4)-c4nnnn4C5)CC3)C2=O)COC1=O | 19 nM |
